Experimental findings from patent US4402962A, “Analgesic mixture of nalbuphine and 4,5-bis(4-methoxyphenyl)-2-(trifluoromethylsulfonyl)-1H-imidazole” (E. I. Du Pont de Nemours and Company, priority 1982, dated 1983) are described below.

This assay can be described thus: phenyl-p-benzoquinone induced writhing test in mice (mouse antiphenylquinone writhing test), oral. Type of assay: in vivo, mouse (male CF1). The following applies: for % MICE BLOCKED: oral. The source says: The phenyl-p-benzoquinone induced writhing test in mice [H. Blumberg et al., Proc. Soc. […] The method simply consists of reading the % ED50 DOSE for each dose ratio on the best fit regression analysis curve from the mouse isobologram, multiplying each component by its effective species dose, and then forming the ratio of the amount of nalbuphine to 4,5-bis(4-methoxyphenyl)-2-(trifluoromethylsulfonyl)-1 H-imidazole. […] [E. W. Pelikan, The Pharmacologist, 1, 73 (1959). ]
Male CF1 mice obtained from Charles River Breeding Laboratories, fasted for 16-22 hours and weighing 18-22 g at the time of testing are used throughout. All mice are dosed sequentially by the oral route with suspensions of 4,5-bis(4-methoxyphenyl)-2-(trifluoromethylsulfonyl)-1H-imidazole and/or of nalbuphine hydrochloride. A dosing volume of 10 ml/kg is used for each sequential solution or suspension. […] All doses are coded and the test is performed under a code not known to the observer.
A stock suspension of 4,5-bis(4-methoxyphenyl)-2-trifluoromethylsulfonyl)-1H-imidazole is prepared by mixing 8.0 mg 4,5-bis(4-methoxyphenyl)-2-(trifluoromethylsulfonyl)-1H-imidazole with 80 ml of an aqueous vehicle containing 2% by volume of Tween 80®, a pharmacological dispersant manufactured by Fisher Scientific Company and containing 100% polysorbate 80, and 1% by weight of Methocel® MC powder, a suspending agent manufactured by DOW Chemical Company and containing 100% methylcellulose, in distilled water. The mixture is sonicated at 150 watts for 1-2 minutes with an ultrasound system, then shaken for two hours at 280 oscillations/minute with 15-20 gm of glass beads. The resultant suspension contains 0.1 mg/ml of 4,5-bis(4-methoxyphenyl)-2-(trifluoromethylsulfonyl)-1H-imidazole; all dosing suspensions are prepared by dilution of the stock suspension with the Methocel®/Tween 80® vehicle; the vehicle control is Methocel®/Tween 80®. All suspensions are prepared fresh daily.
Stock solutions of nalbuphine HCl are prepared by dissolving dry nalbuphine hydrochloride powder with distilled water. All dosing solutions are prepared by dilution of the stock solution with distilled water; the vehicle control is distilled water.
As indicated above, the standard procedure based upon the prevention of phenyl-p-benzoquinone induced writhing in mice is utilized to detect and quantify the analgetic activity of compositions containing nalbuphine and 4,5-bis(4-methoxyphenyl)-2-(trifluoromethylsulfonyl)-1H-imidazole.
Mice, intubated with various doses of nalbuphine hydrochloride, 4,5-bis(4-methoxyphenyl)-2-(trifluoromethylsulfonyl)-1H-imidazole, combined doses of nalbuphine hydrochloride and 4,5-bis(4-methoxyphenyl)-2-(trifluoromethylsulfonyl)-1H-imidazole, or vehicle, are injected intraperitoneally with a challenge dose of phenyl-p-benzoquinone 5 minutes prior to the designated observation period. The phenyl-p-benzoquinone is prepared as an 0.1 mg/ml solution in 5% by volume of ethanol in water; the writhing dose is 1.25 mg/kg injected in a volume of 0.25 ml/20 g. For scoring purposes a "writhe" is indicated by whole body stretching or contraction of the abdomen; mice are observed 10 minutes for the presence or absence of writhing beginning 5 minutes after receiving the phenyl-p-benzoquinone dose. Each mouse is used only once, then discarded. […] This dosage as described herein is referred to as the ED50. All ED50 values and their 95% confidence limits are determined numerically by the computer-assisted methods of Finney. [D. J. Finney, "Probit Analysis," Third Edition, Cambridge University Press, Cambridge, England, 1971].
(In general: In writhing tests, fewer writhes than in controls are read as antinociception.)

A word on the ED50: it is the dose at which the effect has come halfway, by size or by number of responders. Read a high ED50 as a need for a large dose. For the molecule `COc1ccc(-c2nc(S(=O)(=O)C(F)(F)F)[nH]c2-c2ccc(OC)cc2)cc1` [CII, 4,5-bis(4-methoxyphenyl)-2-(trifluoromethylsulfonyl)-1H-imidazole], the “% MICE BLOCKED” value reads like this: (40 min, CII 0.063 mg/kg) 10.0%; (40 min, CII 0.125 mg/kg) 46.7%; (40 min, CII 0.250 mg/kg) 73.3%; (40 min, CII 0.500 mg/kg) 93.3%; (80 min, CII 0.03 mg/kg) 13.3%; (80 min, CII 0.06 mg/kg) 26.7%. In addition, the “% MICE BLOCKED” value (80 min, CII 0.12 mg/kg) came to 56.7% and the “% MICE BLOCKED” value (80 min, CII 0.24 mg/kg) was found to be 63.3%. Moreover, the “ED50 at 40 min, CII” value (40 min post oral dosing, CII part of the ED50 dose, N = 30 mice/dose) is listed as 0.161 mg/kg. For the same molecule, the “ED50 at 80 min, CII” value (80 min post oral dosing, CII part of the ED50 dose, N = 30 mice/dose) was 0.135 mg/kg.
For the molecule `Oc1ccc2c3c1O[C@H]1[C@@H](O)CC[C@@]4(O)[C@@H](C2)N(CC2CCC2)CC[C@]314` [Nalbuphine, (-)-17-(cyclobutylmethyl)-4,5α-epoxymorphinan-3,6α,14-triol], the “% MICE BLOCKED” value is, setting by setting: (40 min, nalbuphine HCl 5.85 mg/kg) 16.7%; (40 min, nalbuphine HCl 11.7 mg/kg) 30.0%; (40 min, nalbuphine HCl 23.4 mg/kg) 43.3%; (40 min, nalbuphine HCl 46.8 mg/kg) 70.0%; (40 min, nalbuphine HCl 93.6 mg/kg) 83.3%; (80 min, nalbuphine HCl 24.5 mg/kg) 6.7%. The “% MICE BLOCKED” value is, setting by setting: (80 min, nalbuphine HCl 49 mg/kg) 26.7%; (80 min, nalbuphine HCl 98 mg/kg) 40.0%; (80 min, nalbuphine HCl 196 mg/kg) 56.7%; (80 min, nalbuphine HCl 392 mg/kg) 83.3%. Also, the median effective dose (ED50) at 40 min, nalbuphine HCl (40 min post oral dosing, nalbuphine HCl part of the ED50 dose, N = 30 mice/dose) was 28.9 mg/kg. For the same molecule, under “80 min post oral dosing, nalbuphine HCl part of the ED50 dose, N = 30 mice/dose”, the “ED50 at 80 min, nalbuphine HCl” value is 141 mg/kg.
